# Assay results from paper PMC6694155, “PTPσ inhibitors promote hematopoietic stem cell regeneration” (Nature Communications, 2019).
# Several values for one entry are separate records, joined by “and”; a condition that tells them apart may be missing. Equal values may be shown once.
# Experiments:
# [1] = system: BM KSL cells; donor CD45.2+ cells; experiment: In vivo BrdU incorporation analysis; set-up: species or system mouse
# Description: For BrdU incorporation analysis in BM KSL cells in vivo, adult C57Bl/6 mice were irradiated with 750 cGy TBI and treated with 5 mg/kg DJ001 or vehicle daily from day + 1 to day + 10. On day + 10, mice were injected intraperitoneally with 2 mg BrdU (BD Biosciences). Sixteen hours later, BM cells were collected and stained with anti-BrdU FITC (BD Biosciences, #557891, 1:50), APC-Cy7-conjugated anti-Sca1 (BD Biosciences, #560654, 1:100), PE-conjugated anti-c-kit (BD Biosciences, #553355, 1:100), and V450 lineage cocktail (BD Biosciences, #561301, 1:10). We repeated this BrdU incorporation analysis on donor CD45.2^+ cells at day + 7 and day + 21 following competitive transplantation into recipient CD45.1^+ mice.
# [2] = system: BM cells from irradiated CD45.2+ mice in CD45.1+ recipient mice; experiment: HSC competitive repopulation assay; assay type: in vivo, mouse
# Description: Femurs and tibiae were collected from killed C57BL/6 or Ptprs^−/− mice and flushed with IMDM containing 10% FBS and 1% penicillin–streptomycin for BM cells. PB was collected through sub-mandibular puncture. Cells were filtered through a 40 μM strainer and then treated with ACK lysis buffer (Sigma Aldrich) before antibody staining for flow cytometry. For KSL and CD150^+CD48^−KSL cell analysis, BM cells were stained with allophycocyanin (APC)-and Cy7-conjugated anti-mouse Sca1 (BD Biosciences, #560654, 1:100), phycoerythrin (PE)-conjugated anti-mouse c-kit (BD Biosciences, #553355, 1:100), V450 lineage cocktail (BD Biosciences, 561301, 1:10), Alexa Fluor 488-conjugated anti-mouse CD48 (BioLegend, #103414, 1:100), and Alexa Fluor 647-conjugated anti-mouse CD150 (Biolegend, #115918, 1:100) antibodies. […]
# CFC assays (colony-forming unit-granulocyte monocyte), burst-forming unit-erythroid, and CFU-GEMM were performed using MethoCult GF M3434 (Stemcell Technologies)[6]. […] Multilineage donor hematopoietic cell engraftment was measured in the PB by flow cytometry.
# human CD34+CD38− cells = experiment: BCL2L1 and MCL-1 gene expression in irradiated human CD34+CD38− cells (qPCR); assay type: cell-based
# Source text: For all studies, RNA was isolated using the Qiagen RNeasy micro kit (Qiagen). RNA was reverse transcribed using the High-Capacity cDNA Reverse Transcription Kit (ThermoFisher Scientific) and was then used for quantitative PCR with SYBR Select Master Mix (Life Technologies). Values were normalized to housekeeping gene Gapdh/GAPDH and given as ΔΔCt values normalized to media-treated, non-irradiated BM KSL cells (2(−ΔΔC(T)) method)[67].
# pERK1/2 in BM KSL cells = experiment: phospho-ERK1/2 immunofluorescence microscopy; assay type: cell-based, mouse; settings: irradiated BM KSL cells
# Description: Lab-Tek chamber slides were coated with fibronectin (25 µg/mL, Millipore Sigma #341635). Sorted BM KSL cells (1 × 10^4) were resuspended in 200 µL TSF media and added to each of the pre-coated wells and incubated overnight (37 °C/5% CO2). The next day, cells were serum starved for 30 min and then stimulated with DJ001 (1 µg/mL), EHT1864 (6 µg/mL), or equal volumes of DMSO for 5 min. Cells were washed once with PBS and fixed with 4% PFA for 10 min. Cells were permeabilized with 0.5% Triton/PBS (PRM) for 30 min and then blocked with 5% fetal bovine serum (FBS)/PRM for 1 h. The slide was then incubated with a phospho-ERK1/2 primary antibody (Cell Signaling, #4377, 1:200) for 1 h. The wells were washed three times and then incubated with a donkey anti-rabbit Alexa Fluor 488 secondary antibody (Thermo Fischer, #A21206, 1:200) at a 1:200 concentration for 1 h. The slide was washed three times and mounted with ProLong Gold Antifade Reagent with DAPI. Cells were imaged using a ×63 objective on a Zeiss Axio Imager M2 widefield fluorescence microscope with all microscope settings derived from imaging a secondary only control. Data were analyzed using Fiji (ImageJ). Briefly, the cell outline was identified by threshold levels and the mean fluorescence intensity within the cell area was quantified.
# [3] = irradiated human CD34+CD38− cells, qPCR, replicates
structure (smiles),measurement,setting,value
"O=C(/C=C\Nc1cccc([N+](=O)[O-])c1)c1ccccc1 [DJ001, (Z)-3-((3-nitrophenyl)amino)-1-phenylprop-2-en-1-one]",BrdU incorporation,[1]; Supplementary Figure 7i,36.54 and 44.684 and 44.262 and 33.456
same,"BrdU incorporation in donor CD45.2+ cells, DJ001 vs vehicle group",[1]; day +7 and day +21 following competitive transplantation,no difference in BrdU incorporation
same,BrdU incorporation in BM KSL cells vs vehicle,[1]; day +10 following 750 cGy TBI,increased bromodeoxyuridine (BrdU) incorporation
same,"percentages of donor myeloid cells, B cells and T cells in PB vs control",[2]; 20 weeks post transplant,significantly increased percentages
same,donor hematopoietic reconstitution over time compared with controls,"[2]; donors: 750 cGy, 5 mg/kg DJ001 daily, BM at day +10",significantly increased donor hematopoietic reconstitution
same,expression of BCL2L1 and MCL-1,"human CD34+CD38− cells; irradiated human CD34+ cells, 12 h after 300 cGy",increased the expression
same,"Figure 5d: gene expression, BCL-XL",human CD34+CD38− cells; [3],7.91 and 7.15 and 7.38
same,"Figure 5d: gene expression, MCL1",human CD34+CD38− cells; [3],3.75 and 3.41 and 4.98
same,ERK1/2 phosphorylation,pERK1/2 in BM KSL cells,induced ERK1/2 phosphorylation
